We go through 1 compound from US20240216387A1, “COMPOSITION FOR PREVENTING OR TREATING MUSCULAR DISEASE, COMPRISING OXICAM-BASED COMPOUND” (ANIMUSCURE INC., priority 2021, published 2024).

Series [1] deals with relatively young mice. Nature of the series: Grip strength and motor performance in relatively young mice (FIG. 15). Type of series: in vivo. How it is done:
On day 21 after inducing CTX-injury, a grip strength test for measuring the muscle strength of the meloxicam-administered group and the control group and an experiment for confirming motor performance were conducted. The grip strength test was performed by using a mouse grip strength tester manufactured by BIOSEB.

The test system of series [2] is C2Cl2 cells. The series is described as follows: Myoblast differentiation by meloxicam concentration (MHC immunofluorescence and Western blot). Type of series: cell-based, mice. The method, then: The C2Cl2 cells were cultured in a general cell culture medium and a differentiation medium, respectively. DMEM supplemented with 10% fetal bovine serum was used as a normal cell culture medium (i.e., a growth medium (GM)), and DMEM containing 2% horse serum was used as a differentiation medium (DM). […] After differentiation, the cells were observed under a microscope, and the cells were disrupted and subjected to Western blot analysis using myogenin and MHC antibodies, which are differentiation markers. The C2Cl2 cells were washed with 1×PBS, fixed with 4% paraformaldehyde at room temperature, and then allowed to react at room temperature after adding a permeabilization buffer. The reaction was performed with PBST (blocking buffer) containing 5% goat serum and PBS containing 0.05% Tween 20 to inhibit non-specific antibody binding. After adding a primary antibody against myosin heavy chain (MHC), the resulting mixture was allowed to react at room temperature. A secondary antibody diluted 1:5000 in a blocking buffer was added and allowed to react at room temperature, and after applying a mounting solution (40% glycerol in DW) and fixing, images were taken under a fluorescence microscope to analyze the results.
Background: Immunoblotting shows a protein as a band on a membrane.

For series [3], the system named is human muscle stem cells. Nature of the series: Human muscle stem cell differentiation (MHC immunostaining, myotube diameter). The note with it: muscle stem cells from subject, meloxicam 1 μM, 4 days. It is filed as cell-based. The method, then:
In addition, human muscle stem […] human skeletal muscle cells (Standard Donors), Cat NO: SK-1111) isolated from the rectus abdominis […] were purchased from MyoSite and used. Human muscle stem […] human skeletal muscle cells (Standard Donors), Cat NO: SK-1111) isolated from the rectus abdominis […] were purchased from MyoSite and used. Human muscle stem cells were seeded in a cell culture medium and cultured for 24 hours. […] The degree of differentiation into muscle fibers was measured through MHC immunostaining, which is a muscle fiber marker. Differentiation was analyzed by muscle fiber diameter.

Series [4] deals with 24-month-old mice. Nature of the series: Muscle mass, muscle type and motor performance in aging mice upon long-term administration. Type of series: in vivo.
Series [5] has as its system 4-month-old normal mice. Nature of the series: Body weight, intake, grip strength, treadmill test and muscle mass in 4-month-old normal mice upon long-term administration. The note with it: meloxicam for 2 months. Type of series: in vivo. How it is done:
In the treadmill test, measurement was performed by using a treadmill device for mice manufactured by Columbus Instruments. Measurements started at a 10% slope and 8 m/min, which was increased 1 m/min every 2 minutes, and continued until the mouse became tired.

The structures appear in SMILES notation.

For the compound `Cc1cnc(NC(=O)C2=C(O)c3ccccc3S(=O)(=O)N2C)s1` [meloxicam], in series [1], the motor performance increase result was “up to 72.3%”. Besides, the “muscle strength increase (grip strength test) compared to the control group” value in series [1] (day 21 after inducing CTX-injury as printed) is “about 21.9%”. For the same compound, the “MHC expression level (Western blot)” value in series [2] (by meloxicam concentration (1-10,000 nM), FIG. 3) was “increased”. Moreover, the “MHC observed in myoblasts (fluorescence microscope)” value in series [2] (high concentration of meloxicam (1-10,000 nM tested), differentiation for 3 days, FIG. 2) is “clearly observed”. The myotube diameter result in series [3] (FIG. 4) and in series [3] (FIG. 5) was “increased” throughout. Moreover, in series [3] (FIG. 5), the MHC expression entry is on record as “increased”. Further, the “effect of increasing motor performance” value in series [4] (7-month-old mice) is on record as “confirmed”. Also, the “muscle mass in the hindlimb muscles and EDL muscle” value in series [4] (24-month-old mice, meloxicam for 4 months, FIG. 12) is on record as “increased”. The “motor performance increase (rotarod apparatus) compared to the control group” value in series [4] (aged mice, FIG. 14) is reported as “more than 50%”. For the same compound, the “body weight change compared with the non-administration group” value in series [5] (FIG. 16A) is given as “no significant change”. Further, in series [5] (FIG. 16B), the change in intake result was “no change”. The “muscle strength (grip strength test)” value in series [5] (FIG. 17A) was “improved”. In addition, in series [5] (compared to the non-administration group, FIG. 17A), the “exercise duration (treadmill test)” value is reported as “improved”.
